Data as given in publication PMC4303912, “A primary fish gill cell culture model to assess pharmaceutical uptake and efflux: Evidence for passive and facilitated transport” (Aquatic Toxicology (Amsterdam, Netherlands), 2015).
Where two headings read alike, the source gives them in different places. Marks after values point to notes of the source that are not given here. Blank lines part the entries; values can stand above or below the compound they belong to.

Key:
DSI gill cell epithelium [1] = details: for Uptake TR (Papp A:B/Papp B:A): rainbow trout (Oncorhynchus mykiss)
[2] = cited from earlier work
DSI gill cell epithelium [3] = assay: Concentration equilibrium transport assays (CETA); details: for CETA, percentage of initial concentration apical versus basal: 1 μg L^−1 both sides, over 48 h
in vitro = details: rainbow trout (Oncorhynchus mykiss)
[4] = test system: propranolol uptake across DSI gill cell epithelium; assay: Inhibition of the uptake of propranolol by transporter inhibitors; details: 400 nM inhibitor, 48 h
[5] = Membrane (paracellular) permeability with 14C-mannitol; assay type: in vitro ADME, rainbow trout (Oncorhynchus mykiss); details: for Papp A→B at 24 h, 0.43 nM: rainbow trout (Oncorhynchus mykiss)
DSI gill cell epithelium [6] = assay: Bidirectional transport assays (BTA), apparent permeability coefficients and transport ratios; details: for difference between Papp A:B and Papp B:A: 6 h; for time-dependent BTA, uptake versus efflux (% of donor concentration): over 48 h
[7] = design: method as in AstraZeneca, 2014; details: experimentally measured values, ref AstraZeneca, 2014, cited from earlier work
DSI gill cell epithelium [8] = assay: pH-dependent transport of propranolol; assay type: in vitro ADME, rainbow trout (Oncorhynchus mykiss); details: pH from 8 to 9.5; asymmetrical; 6 h
[9] = pH-dependent transport of propranolol; assay type: in vitro ADME, rainbow trout (Oncorhynchus mykiss); details: rainbow trout (Oncorhynchus mykiss); for Papp B→A at 6 h, 1 μg L^−1: 1 μg L^−1, read-out: Papp B:A (efflux permeability)
[10] = Bidirectional transport assays (BTA), apparent permeability coefficients and transport ratios; details: rainbow trout (Oncorhynchus mykiss)
DSI gill cell epithelium [11] = assay: Concentration-dependent uptake of propranolol, in vitro basal concentrations; assay type: in vitro ADME, rainbow trout (Oncorhynchus mykiss); details: for In vitro concentration (basal compartment): 6 h apical exposure, asymmetrical
Procedure: Radioactivity was analyzed as previously described in Section 2.3.
This was calculated using the mammalian fish leverage model, whereby the predicted plasma concentration can be described by multiplying the environmental concentration by the blood to water partitioning coefficient ([Huggett et al., 2004]) using the Fitzsimmons model for the partitioning of compounds between blood and water ([Fitzsimmons et al., 2001]).

[12] = design: method as in Owen et al., 2009; details: ref Owen et al., 2009, cited from earlier work; for In vivo plasma concentration: 40 days exposure
[13] = nominal water concentration 10 μg L^−1
[14] = nominal water concentration 100 μg L^−1
[15] = nominal water concentration 1000 μg L^−1
[16] = nominal water concentration 10,000 μg L^−1

Structure (SMILES): COc1ccc(CC(C)NCC(O)c2ccc(O)c(NC=O)c2)cc1 (centres unmarked) [Formoterol, formoterol]
difference between Papp A:B and Papp B:A (DSI gill cell epithelium [1]): no significant differences
time-dependent BTA, uptake versus efflux (% of donor concentration) (DSI gill cell epithelium [1]): slightly greater uptake than efflux
Uptake TR (Papp A:B/Papp B:A) (DSI gill cell epithelium [1]): 1.08
Uptake TR (Papp A:B/Papp B:A) (DSI gill cell epithelium [1]; pH 7.7): 0.97
pKa (acidic) ([2]; acidic): 7.9
pKa (basic) ([2]; basic): 9.2
CETA, percentage of initial concentration apical versus basal (DSI gill cell epithelium [3]; asymmetrical conditions): no signs of facilitated transport
CETA, percentage of initial concentration apical versus basal (DSI gill cell epithelium [3]; symmetrical conditions): more in the apical than basal
efflux ratio (in vitro): 0.93
efflux ratio (in vitro; pH 7.7): 1.03

Structure (SMILES): CN(C)C(=O)CCSC(SCCC(=O)O)c1cccc(/C=C/c2ccc3ccc(Cl)cc3n2)c1 (centres unmarked) [MK571]
decrease in propranolol permeability compared to the control ([4]; apical application): approximately 40%
decrease in propranolol permeability compared to the control ([4]; basal application): approximately 40%

Structure (SMILES): OC[C@@H](O)[C@@H](O)[C@H](O)[C@H](O)CO [Mannitol, mannitol]
Papp at 24 h, 0.43 nM ([5]; pH 7.7, cell free inserts, TER 0 Ω cm^2 (blanked), apical freshwater, read-out: Mannitol flux (permeability)): 3.6 ± 0.2 ×10⁻⁶ cm/s
Papp A→B at 24 h, 0.43 nM ([5]; pH 7.7, DSI epithelia with TER 200–1000 Ω cm^2, apical freshwater, read-out: mannitol permeability): 1.1 ± 1.1 ×10⁻⁶ cm/s
Papp A→B at 24 h, 0.43 nM ([5]; pH 7.7, DSI epithelia with TER >2 kΩ cm^2, apical freshwater, read-out: mannitol permeability (Papp A:B)): 0.1 ± 0.01 ×10⁻⁶ cm/s

Structure (SMILES): CC(C)NCC(O)COc1cccc2ccccc12 (centres unmarked) [Propranolol, propranolol]
log Kow ([7]; pH 7.4): 1.12 ^*
effect of pH increase on Papp (DSI gill cell epithelium [8]): without significant effect
Papp A→B at 6 h, 1 μg L^−1 ([9]; apical freshwater pH 6, asymmetrical, 1 μg L^−1, read-out: Papp A:B (uptake permeability)): 0.4 ± 0.03 ×10⁻⁶ cm/s
Papp B→A at 6 h, 1 μg L^−1 ([9]; apical freshwater pH 6, asymmetrical): 2.8 ± 0.1 ×10⁻⁶ cm/s
Papp B→A at 6 h, 1 μg L^−1 ([9]; apical freshwater pH 8, asymmetrical): 0.8 ± 0.1 ×10⁻⁶ cm/s
difference between Papp A:B and Papp B:A (DSI gill cell epithelium [6]; asymmetrical conditions): significantly higher
time-dependent BTA, uptake versus efflux (% of donor concentration) (DSI gill cell epithelium [6]; asymmetrical conditions): taken up across the gill cell surface than effluxed
Papp A→B at 6 h, 1 μg L^−1 [10]: 1.7 ± 0.2 ×10⁻⁶ cm/s
Papp B→A at 6 h, 1 μg L^−1 [10]: 1.1 ± 0.02 ×10⁻⁶ cm/s
Papp B→A at 6 h, 1 μg L^−1 ([10]; pH 7.7): 0.8 ± 0.1 ×10⁻⁶ cm/s
facilitated transport as share of the total transport (DSI gill cell epithelium [3]; CETA): approximately 10%
CETA, percentage of initial concentration apical versus basal (DSI gill cell epithelium [3]; asymmetrical conditions): increased apical to basal transport
CETA, percentage of initial concentration apical versus basal (DSI gill cell epithelium [3]; symmetrical conditions): significantly more than the basal
in vitro basolateral concentration as average share of actual plasma concentration (DSI gill cell epithelium [11]): 16%
in vitro basolateral concentration as average share of predicted plasma concentration (DSI gill cell epithelium [11]): 6%
slope of [rate] versus [concentration] (flux) (DSI gill cell epithelium [11]; 0.014–10,000 μg L^−1, 6 h, linear regression, n = 54, r^2 = 0.974): 0.052
slope of [in vitro] versus [actual] plasma concentration (DSI gill cell epithelium [11]; n = 21, r^2 = 0.966): 0.155
slope of [in vitro] versus [predicted] plasma concentration (DSI gill cell epithelium [11]; n = 21, r^2 = 0.995): 0.063
In vitro concentration (basal compartment) (DSI gill cell epithelium [11]; nominal water concentration 0.1 μg L^−1): 0.04 (±0.002) ng mL^−1
In vitro concentration (basal compartment) (DSI gill cell epithelium [11]; nominal water concentration 1.0 μg L^−1): 0.10 (±0.001) ng mL^−1
In vitro concentration (basal compartment) (DSI gill cell epithelium [11]; [13]): 0.72 (±0.02) ng mL^−1
In vitro concentration (basal compartment) (DSI gill cell epithelium [11]; [14]): 7.5 (±0.3) ng mL^−1
In vitro concentration (basal compartment) (DSI gill cell epithelium [11]; [15]): 79.5 (±7.3) ng mL^−1
In vitro concentration (basal compartment) (DSI gill cell epithelium [11]; [16]): 812 (±158) ng mL^−1
In vitro concentration (basal compartment) (DSI gill cell epithelium [11]; nominal water concentration 100,000 μg L^−1): 5545 (±313) ng mL^−1
In vivo plasma concentration ([12]; nominal water concentration 1.0 μg L^−1, pooled plasma sample): 0.94 ^* (n/a) ng mL^−1
In vivo plasma concentration [12, 13]: 3.3 (±0.4) ng mL^−1
In vivo plasma concentration [12, 14]: 16 (±7) ng mL^−1
In vivo plasma concentration [12, 15]: 280 (±116) ng mL^−1
In vivo plasma concentration [12, 16]: 5200 (±1333) ng mL^−1
actual plasma concentrations as share of predicted [12]: 59%

Now from value to compound, other results behind:

facilitated transport as share of the total transport (DSI gill cell epithelium [3]; CETA): approximately 10%
CETA, percentage of initial concentration apical versus basal (DSI gill cell epithelium [3]; asymmetrical conditions): increased apical to basal transport
Structure (SMILES): CN(C)CCCN1c2ccccc2CCc2ccccc21 [Imipramine, imipramine]
pKa [2]: around 9.5
CETA, percentage of initial concentration apical versus basal (DSI gill cell epithelium [3]; symmetrical conditions): increased basal to apical facilitated transport

difference between Papp A:B and Papp B:A (DSI gill cell epithelium [6]; asymmetrical conditions): no significant differences
time-dependent BTA, uptake versus efflux (% of donor concentration) (DSI gill cell epithelium [6]; asymmetrical conditions): slightly greater uptake than efflux
CETA, percentage of initial concentration apical versus basal (DSI gill cell epithelium [3]; asymmetrical conditions): no signs of facilitated transport
CETA, percentage of initial concentration apical versus basal (DSI gill cell epithelium [3]; symmetrical conditions): no significant differences
Structure (SMILES): COCCc1ccc(OCC(O)CNC(C)C)cc1 (centres unmarked) [Metoprolol, metoprolol]

difference between Papp A:B and Papp B:A (DSI gill cell epithelium [6]; asymmetrical conditions): no significant differences
time-dependent BTA, uptake versus efflux (% of donor concentration) (DSI gill cell epithelium [6]; symmetrical conditions): greater efflux transport
efflux ratio at 6 h, 1 μg L^−1 [10]: 0.83
facilitated transport as share of the total transport, efflux (DSI gill cell epithelium [3]; CETA, efflux): around 5%
CETA, percentage of initial concentration apical versus basal (DSI gill cell epithelium [3]; symmetrical conditions): no significant differences
Structure (SMILES): CNC(=C[N+](=O)[O-])NCCSCc1ccc(CN(C)C)o1 [Ranitidine, ranitidine]
pKa [2]: 8.08
time-dependent BTA, uptake versus efflux (% of donor concentration) (DSI gill cell epithelium [6]; asymmetrical conditions): taken up across the gill cell surface than effluxed

difference between Papp A:B and Papp B:A (DSI gill cell epithelium [6]; asymmetrical conditions): no significant differences
time-dependent BTA, uptake versus efflux (% of donor concentration) (DSI gill cell epithelium [6]; asymmetrical conditions): slightly greater uptake than efflux
efflux ratio at 6 h, 1 μg L^−1 [10]: 1.09
efflux ratio at 6 h, 1 μg L^−1 ([10]; pH 7.7): 1.13
CETA, percentage of initial concentration apical versus basal (DSI gill cell epithelium [3]; asymmetrical conditions): no signs of facilitated transport
CETA, percentage of initial concentration apical versus basal (DSI gill cell epithelium [3]; symmetrical conditions): no significant differences
Structure (SMILES): CC(C)(C)NCC(O)c1cc(O)cc(O)c1 (centres unmarked) [Terbutaline, terbutaline]
log Kow ([7]; no pH given): 1.29
